Measurements from patent publication US6319910A, “Method for inhibiting cyclooxygenase-2 and tumor necrosis factor alpha” (Hospital for Joint Diseases, priority 1998, dated 2001).

Tests used:
[1] = system: TNFα; test: TNFα release in the medium by HEK 293 cells permanently transfected with human proTNFα (ELISA); format: cell-based; conditions: words; for Effect on spontaneous TNFα release: FIG. 8, 16 hours
Method: HEK 293 cells were transfected with the proTNFα cDNA (wild) to prepare a stable cell line. […] A mutant form of proTNFα cDNA which could not be cleaved by the endogenous TNFα convertase (TACE) to release soluble TNFα was also transfected in separate human HEK 293 cells. The soluble TNFα was estimated by ELISA from the wild type and mutant transfected cells from the medium (FIG. 6).
HEK 293 cells were grown as previously described by American Type Culture Collection (ATCC). […] The HEK 293 cells were incubated with CMT-3 to examine the effects of CMT-3 on TNFα release in the medium.
HEK 293 cells were grown under the conditions previously described by ATCC. Various compounds, including CMT-3 and doxycycline/minocyclines were incubated with proTNFα transfected HEK 293 cells releasing TNFα in the medium at 16 hours. […] Soluble TNFα was estimated by ELISA from the medium.

[2] = system: RAW 264.7 cells; test: PGE2 production/accumulation in LPS-stimulated RAW 264.7 cells; format: cell-based, murine; conditions: for inhibition at 10 µg/mL: Mus musculus, RAW264.7, 16 h, read-out: PGE2 % Inhibition or (Increase)
Method: (§1) Murine macrophages (RAW 263.7 cells) which were grown in Dulbecco's modified eagle medium (DMEM) containing 10% fetal bovine serum, 2 mM glutamine, 50 U/ml penicillin and 50 μg/ml streptomycin, were stimulated with 100 ng/ml LPS to induce both NOS and COX-2 at 16 hr. […] The data presented in FIG. 1 represents mean±SD as examined by T test were n=3.
(§2) The effects of CMTs 1, 2, 3, 5 and 8 on PGE2 and NO accumulation in RAW 264.7 cells were further evaluated as described above for CMT-3. […]

[3] = system: RAW 264.7 cells; test: Nitrite (NO) production/accumulation in LPS-stimulated RAW 264.7 cells; format: cell-based, murine; conditions: for inhibition at 10 µg/mL: Mus musculus, RAW264.7, 16 h
Method: as §1, §2

[4] = system: OA-affected cartilage; test: Spontaneous PGE2 release by OA-affected cartilage (ex vivo organ culture); format: cell-based, human; conditions: Table 2; 5 μg/ml
Method: (§3) Human osteoarthritis affected cartilage spontaneously release nitric oxide (NO) and PGE2 in the medium as previously reported (Amin et al, 1995a; 1997a). The OA-organ cultures were set up as described (Amin et al, 1995a; 1997a). Briefly, total knee articular cartilage from tibial plateau and femoral condyle were harvested from OA-affected patients. The cartilage was mixed and cut into 3-mm discs and 4-6 discs were placed in triplicate or quadruplicate, in a 24-well plate in 2.0 ml of Ham's F-12 medium supplemented with 0.2% endotoxin free human albumin, 10 mM Hepes pH 7.4 and antibiotics in the presence of various modulators, as previously described (Amin et al, 1995a; 1997a). CMT-8 was used at pharmacologically relevant concentrations in DMSO (<0.01% final concentration) as carrier. An equivalent amount of DMSO was also added in the control cultures.
(§4) The p value between control and CMT-8 treated values for PGE2≤0.1 (insignificant) whereas the p values between NMMA treated cartilage and CMT-8 treated cartilage was ≤0.001 (significant). The data are represented as mean±SD as examined by T test when n=3. Data represent±SD value as determined by Student's t test n=4. The P values described are compared with control unstimulated OA-cartilage. The data represents one of the two similar experiments. P values for PGE2 and Nitrite=^a≤0.5; ^b≤0.1; ^c≤0.05; ^d≤0.01.

[5] = system: OA-affected cartilage; test: Spontaneous nitrite/nitric oxide release by OA-affected cartilage (ex vivo organ culture); format: cell-based, human; conditions: Table 2; 5 μg/ml
Method: as §3, §4

[6] = molecular target: T1, COX-2 (Mus musculus, UniProt Q05769); test: COX-2 specific activity in cell-free extracts of LPS-stimulated RAW 264.7 cells (PGE2 by RIA); format: biochemical, murine
T1 construct: using total unfractionated cell extracts; endogenous in cells; host or cells: RAW 264.7 cells, LPS-induced; cell-free extract
T1 sequence (Q05769 18-604): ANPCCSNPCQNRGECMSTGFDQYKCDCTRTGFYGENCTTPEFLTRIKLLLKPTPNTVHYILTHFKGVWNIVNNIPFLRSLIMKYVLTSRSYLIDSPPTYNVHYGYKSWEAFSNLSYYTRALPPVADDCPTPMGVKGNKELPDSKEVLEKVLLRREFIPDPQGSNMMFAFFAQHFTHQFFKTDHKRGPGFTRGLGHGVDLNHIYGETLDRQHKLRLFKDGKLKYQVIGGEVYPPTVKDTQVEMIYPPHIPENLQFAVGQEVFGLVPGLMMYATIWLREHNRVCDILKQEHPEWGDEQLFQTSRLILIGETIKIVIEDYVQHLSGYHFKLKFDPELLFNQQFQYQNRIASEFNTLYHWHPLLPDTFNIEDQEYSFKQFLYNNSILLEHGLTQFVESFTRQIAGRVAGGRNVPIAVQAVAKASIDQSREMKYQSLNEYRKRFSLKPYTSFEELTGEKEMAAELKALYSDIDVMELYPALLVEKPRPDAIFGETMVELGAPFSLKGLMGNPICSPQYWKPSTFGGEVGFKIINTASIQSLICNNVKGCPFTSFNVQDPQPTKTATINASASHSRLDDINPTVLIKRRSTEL
Method: Raw 264.7 cells were stimulated with LPS and cell-free extracts were prepared as follows. RAW 264.7 cells were induced with LPS (100 ng/ml) in the presence or absence of tetracyclines or hydrocortisone for 14-20 hours. Following induction, the cells were pelleted at 4° C. and resuspended in Tris buffer: 10 mM, pH 7.4 containing 10 μg/ml each of chymostatin, antipain, leupeptin and pepstatin, 1 mM DDT and 1 mM PMSF. Cells were lysed in a Polytron PA 1200 homogenizer (Kinematica AG, Switzerland) with the cocktail of protease inhibitors after 3 cycles of rapid freeze-thawing. The lysate was centrifuged at 18,000 at 4° C. in an eppendorf centrifuge, and the resulting supernatant was used as cell-free extracts. The protein was measured by BCA assay reagent (Pierce, Rockford, Ill.) using BSA as standard. […] The specific enzyme activity was defined as ng of PGE2 released/mg protein/37° C. for 20 minutes.
RAW 264.7 cells were stimulated with 1 μg/ml of LPS for 16 hours and cell-free extracts were prepared as described above. The extracts were incubated with different modulators for 20 minutes at 37° C. before adding the substrate to initiate the enzyme reaction, which was terminated after 30 minutes by heat inactivation. The data represent one of the two experiments, the PGE2 analysis from each sample was done in triplicates n=3. The p value is a comparison between control and experimentals.

[7] = system: COX-2; test: Expression/modification (size) of COX-2 in LPS-stimulated murine macrophages, Western blot; format: cell-based; conditions: LPS 100 ng/ml, words
Method: (§5) RAW 263.7 cells were grown as previously described (Amin et al, 1995b). Murine macrophages stimulated with 100 ng/ml LPS were incubated with CMT-3 or tunicamycin (a glycosylation inhibitor). […] Nitrite and PGE2 were estimated as previously described (Amin et al, 1995b). It is quite possible that CMT-3 may inhibit COX-2 and PGE2 production by post translational modification of COX-2 which may be similar to tunicamycin inhibition. The data represents the mean±SD evaluated by T test (n=3).
Murine macrophage cells were cultivated as previously described (Amin et al, 1995b). […] cells were stimulated with 100 ng/ml of LPS in the presence of CMT-3, CMT-5 and glycosylation inhibitor, tunicamycin. The cells were grown for 16 hr and harvested. The cell free extracts were prepared as previously described (Amin et al, 1995b). In FIG. 4A, 50 μg of protein was loaded in each well and run on SDS-PAGE gels and blotted onto Western blots using a specific anti COX-2 antibody as previously described (Amin et al, 1997a). The positive control is a standard COX-2. […] The size is approximately 2000 D smaller (CMT-3 form) than the native COX-2 shown as a standard. […] These experiments indicate that CMT-3 induces modification of the COX-2 protein. The SDS PAGE analysis and Western blotting of COX-2 was carried out as described above.

[8] = system: NOS; test: NOS expression in LPS-stimulated murine macrophages; format: cell-based; conditions: FIG. 2; LPS 100 ng/ml; words
Method: as §5

[9] = Experiment II, LPS 100 ng/ml, compound 10 μg/ml, 16 hours
[10] = Experiment I, LPS 100 ng/ml, compound 10 μg/ml, 16 hours

Molecule: C[C@@H]1C[C@@H]([C@H](O)CC2CC(=O)NC(=O)C2)C(=O)[C@@H](C)C1 [Cycloheximide, cycloheximide, reference compound]
- Effect on TNFα release in the medium ([1]; FIG. 7): inhibited the release of TNFα in the medium
- Effect on spontaneous TNFα release [1]: inhibit the release of TNFα

Molecule: C[C@@]1(O)c2cccc(O)c2C(O)=C2C(=O)[C@]3(O)C(O)=C(C(N)=O)C(=O)C[C@@H]3C[C@@H]21 [CMT-1, 4-dedimethylaminotetracycline]
- PGE2 accumulation ([2]; 16 h, 10 ug/mL): 31.5 ± 2.5 ng/mL
- PGE2 accumulation [2, 9]: 30.2 ± 8.0 ng/mL
- Nitrite [3, 10]: 50.8 µM
- Nitrite [3, 9]: 20.3 µM
- PGE2 [4]: 131.8 ± 37.7 ng/mL
- Nitrite [5]: 82.0 ± 33.0 µM
- Effect on spontaneous TNFα release [1]: inhibit the spontaneous TNFα release
- Inhibition of TNFα (summary statement) ([1]; HEK 293 cells transfected with proTNFα cDNA, low levels): inhibiting TNFα

Molecule: C[C@]12CCC(=O)C=C1CC[C@@H]1[C@@H]2[C@@H](O)C[C@@]2(C)[C@H]1CC[C@]2(O)C(=O)CO [Hydrocortisone, hydrocortisone, reference compound]
- PGE2 accumulation ([2]; 16 h, 10 ug/mL): 12.3 ± 2.6 ng/mL
- PGE2 accumulation [2, 9]: 9.5 ± 0.5 ng/mL
- inhibition at 10 µg/mL [2, 10]: 52%
- inhibition at 10 µg/mL [2, 9]: 50%
- Nitrite ([3]; 16 h, 10 ug/mL): 34.3 µM
- Nitrite [3, 9]: 12.9 µM
- inhibition at 10 µg/mL [3, 10]: 32%
- inhibition at 10 µg/mL [3, 9]: 40%

Molecule: CC(=O)Oc1ccccc1C(=O)O [Aspirin, aspirin, reference compound]
- Effect on specific activity of COX-2 ([6]; CMT-3 27 μM, CMT-8 27 μM, aspirin 56 μM, indomethacin 28 μM, words): significantly inhibited the specific activity of COX-2
- COX-2 Specific Activity ([6]; Table 3, cell-free extracts, 10 μg (aspirin amount not given)): 2.1 ± 0.1 PGE2 ng/mg protein

Molecule: tunicamycin [reference compound]
- Effect on PGE2 production ([2]; FIG. 2, LPS 100 ng/ml, words): inhibit
- Effect on NO production ([3]; FIG. 2, LPS 100 ng/ml, words): inhibit
- Effect on COX-2 expression ([7]; FIG. 2): inhibit
- Effect on size of COX-2 ([7]; FIG. 4A, 16 hr, Western blot): much smaller than the native form
- Effect on NOS expression [8]: inhibit

Molecule: CN(C)C1C(=O)C(C#N)=C(O)C2(O)C(=O)C3=C(O)c4c(O)cccc4C(C)(O)C3CC12 (stereo not shown) [CMT-2]
- PGE2 accumulation [2, 10]: 26.8 ± 8.8 ng/mL
- PGE2 accumulation [2, 9]: 22.9 ± 5.0 ng/mL
- Nitrite [3, 9]: 23.3 ± 3.5 µM
- PGE2 [4]: 145.2 ± 61.6 ng/mL
- Nitrite [5]: 84.0 ± 20.0 µM
- Effect on spontaneous TNFα release [1]: not CMT-2 and CMT-5, inhibit the spontaneous TNFα release
